{"source": "patent US4145554A", "about": "“3-Nitropyrazole derivatives” (Eli Lilly and Company, priority 1977, dated 1979)", "key": {"[1]": {"system": "Pasteurella hemolytica", "test": "in vitro tube dilution test (MIC)", "assay_type": "cell-based"}, "[2]": {"system": "Mycoplasma hyopneumoniae", "test": "in vitro tube dilution test (MIC)", "assay_type": "cell-based", "conditions": "Mesomycoplasma hyopneumoniae"}, "[3]": {"system": "Staphylococcus sp.", "test": "in vitro tube dilution test (MIC)", "assay_type": "cell-based"}, "[4]": {"system": "Erysipelas insidiosa", "test": "in vitro tube dilution test (MIC)", "assay_type": "cell-based"}, "[5]": {"system": "Salmonella pullorum 9-27", "test": "in vitro tube dilution test (MIC)", "assay_type": "cell-based", "conditions": "Salmonella enterica; Salmonella pullorum 9-27, tube dilution"}, "[6]": {"system": "Citrobacter freundii", "test": "agar dilution technique (MIC)", "assay_type": "cell-based"}, "[7]": {"system": "Serratia sp.", "test": "agar dilution technique (MIC)", "assay_type": "cell-based"}, "[8]": {"system": "Pseudomonas aeruginosa", "test": "agar dilution technique (MIC)", "assay_type": "cell-based"}, "[9]": {"system": "E. coli", "test": "Tests in mice, E. coli infection", "assay_type": "in vivo", "experimental": "Groups of laboratory mice were inoculatd with E. coli or with Streptococcus pyogenes. The 3-nitropyrazoles were administered in two different modes to the infected mice. In one group of tests, the compound was administered in two subcutaneous doses of 83 mg./kg. each, given 1 and 5 hours after the mice were inoculated with the organism. The mice were observed, and the results reported below as the number of days the treated mice survived the challenge.\nIn the other group of tests, the dose of each compound which allowed 50 percent of the treated mice to survive the challenge was determined. Again, the compound was administered in subcutane divided doses, 1 and 5 hours post-inoculation."}, "[10]": {"system": "Pasteurella multocida and P. hemolytica", "test": "Pasteurella pneumonia in calves", "assay_type": "in vivo"}, "[11]": {"system": "H. meleagridis", "test": "Blackhead in poultry, turkeys", "assay_type": "in vivo", "experimental": "One- to three-week-old chicks and turkey poults were obtained from homogeneous source flocks and allocated into treatment groups. Some groups were held as infected, untreated controls, and other groups were treated with 3-nitropyrazoles by administering the compounds in the birds' feed. Various concentrations of the pyrazoles were administered to determine the least concentration which protected the birds. A few days after the administration of medicated feed began, all of the birds were challenged by rectally administering a suspension of at least 5,000 H. meleagridis protozoa per chick. The challenge organisms had been originally obtained from infected chickens, and were grown in vitro to provide a supply of organisms for testing.\nThe birds were held for about seven days after the challenge was administered, during which time the administration of pyrazole-medicated feed was continued. Then all of the chicks, including the untreated, infected controls, were sacrificed and necropsied. The cecum and the liver of each bird were examined for characteristic H. meleagridis lesions.\nFor each compound, the lowest feed concentration which gave an active response is indicated. While feed consumption data were not taken during the tests, the birds ate at such a rate that a feed concentration of 0.02 percent is equivalent to a treatment rate of about 10 mg./kg./day."}, "[12]": {"system": "Salmonella typhimurium", "test": "Salmonellosis in chickens, single injection to day-old chicks", "assay_type": "in vivo", "conditions": "Salmonella enterica, TYPHIMURIUM, 168 h; single injection of 60 mg./kg.; seven days; read-out: Survival (converted)", "method_in_brief": "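Five day-old chicks per group received one injection of compound at 60 mg./kg., then were challenged next day by subcutaneous S. typhimurium at a dose lethal to most or all untreated controls. Read-out is survivor count, pooled over repeat groups, with untreated challenged controls run in each batch.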"}, "[13]": {"system": "S. typhimurium", "test": "Salmonella typhimurium in chickens, medicated feed", "assay_type": "in vivo, chicks", "conditions": "for Avg. Wt.: surviving chicks"}, "[14]": {"system": "avian E. coli", "test": "Colibacillosis in chickens, medicated feed", "assay_type": "in vivo"}, "[15]": {"system": "group E streptococci", "test": "Lymphadenitis in swine", "assay_type": "in vivo", "conditions": "200 gm. per ton of feed; 7 weeks; 12 treated swine", "experimental": "The same 3-nitropyrazole tested in the example immediately above was also tested to determine its ability to prevent lymphadenitis, or jowl abscess, infections in swine. One group of 12 young swine was treated with the 3-nitropyrazole compound as a feed additive at the rate of 200 gm. per ton of feed, and another group of 12 swine was held as infected controls. Administration of the 3-nitropyrazole began shortly before the administration of the challenge, and continued throughout the 7-week test. All of the swine were challenged with a culture of group E streptococci isolated from jowl abscesses of an infected pig. The challenge organisms were administered as a dispersion in the swine's drinking water. After 7 weeks, all of the swine were slaughtered, and their cervical areas were examined for the presence of the abscesses caused by lymphadenitis infections. […] Abscesses were found in 9 of the 12 infected control animals."}, "[16]": {"conditions": "8 days after challenge, 25 mg. per kg. intramuscular"}, "[17]": {"conditions": "100 gm./ton, 10^-1 dilution challenge, initial weight 940 gm."}, "[18]": {"conditions": "100 gm./ton, further test, about 5 weeks of age"}, "[19]": {"conditions": "200 gm./ton, 10^-1 dilution challenge, initial weight 940 gm."}, "[20]": {"conditions": "200 gm./ton, further test, about 5 weeks of age"}, "[21]": {"conditions": "300 gm./ton feed, about 5 weeks old, 10^-2 dilution challenge, first test"}, "[22]": {"conditions": "300 gm./ton, 10^-1 dilution challenge, initial weight 940 gm."}}}
{"smiles": "NC(=O)c1cn(CCO)nc1[N+](=O)[O-]", "note": "[Compound 32, 1-(2-hydroxyethyl)-3-nitro-4-pyrazolecarboxamide]", "values": [{"measurement": "MIC", "setting": "[1]", "result": "< 1.56", "unit": "µg/mL"}, {"measurement": "MIC", "setting": "[2]", "result": 50, "unit": "µg/mL"}, {"measurement": "MIC", "setting": "[3]", "result": 3.12, "unit": "µg/mL"}, {"measurement": "MIC", "setting": "[4]", "result": "> 50", "unit": "µg/mL"}, {"measurement": "MIC", "setting": "[5]", "result": "< 1.56", "unit": "µg/mL"}, {"measurement": "MIC", "setting": "[6]", "result": 8, "unit": "µg/mL"}, {"measurement": "MIC", "setting": "[7]", "result": 32, "unit": "µg/mL"}, {"measurement": "MIC", "setting": "[8]", "result": 128, "unit": "µg/mL"}, {"measurement": "ED50", "setting": "[9]; Escherichia coli, sc, subcutaneous, 1 and 5 hours post-inoculation", "result": 19.6, "unit": "mg/kg"}, {"measurement": "Days Survived", "setting": "[9]; two subcutaneous doses of 83 mg./kg., 1 and 5 hours", "result": 7.0, "unit": "days"}, {"measurement": "pasteurellae identified in lungs", "setting": "[10]; [16]", "result": "No pasteurellae were identified in the lungs of any of the three animals"}, {"measurement": "physical examination of lungs", "setting": "[10]; [16]", "result": "minor consolidation or emphysema in areas of the lungs"}, {"measurement": "extent of pasteurella infection", "setting": "[10]; indicated by temperatures, 25 mg. per kg. intramuscular", "result": "only a very mild pasteurella infection"}, {"measurement": "Average Temperature", "setting": "[10]; post-challenge, 25 mg. per kg. intramuscular daily for five days", "result": 102.7, "unit": "° F."}, {"measurement": "Active Level (lowest feed concentration which gave an active response)", "setting": "[11]", "result": ".02%"}, {"measurement": "responders at 60 mg/kg", "setting": "[12]", "result": 93.3, "unit": "%"}, {"measurement": "Survival", "setting": "[13]; Test A, 100 gm./ton feed", "result": "20/36"}, {"measurement": "Avg. Wt.", "setting": "[13]; Test A, 100 gm./ton feed", "result": 94, "unit": "gm."}, {"measurement": "Survival", "setting": "[13]; Test B, 200 gm./ton feed", "result": "35/36"}, {"measurement": "Avg. Wt.", "setting": "[13]; Test B, 200 gm./ton feed", "result": 107, "unit": "gm."}, {"measurement": "Survival", "setting": "[13]; Test C, 200 gm./ton feed", "result": "34/48"}, {"measurement": "Avg. Wt.", "setting": "[13]; Test C, 200 gm./ton feed", "result": 71, "unit": "gm."}, {"measurement": "Avg. Wt.", "setting": "[14]; [17]", "result": 1239, "unit": "gm."}, {"measurement": "E. coli Lesions", "setting": "[14]; [17]", "result": "17/18"}, {"measurement": "Mortality", "setting": "[14]; [17]", "result": "0/18"}, {"measurement": "Mortality", "setting": "[14]; 100 gm./ton, approximately 7-week-old chickens", "result": "3/12"}, {"measurement": "E. coli Lesions", "setting": "[14]; 100 gm./ton, approximately 7-week-old chickens, birds which died not examined", "result": "5/9"}, {"measurement": "Avg. Wt.", "setting": "[14]; [18]", "result": 1209, "unit": "gm."}, {"measurement": "E. coli Lesions", "setting": "[14]; [18]", "result": "37/40"}, {"measurement": "Mortality", "setting": "[14]; [18]", "result": "6/40"}, {"measurement": "Avg. Wt.", "setting": "[14]; [19]", "result": 1250, "unit": "gm."}, {"measurement": "E. coli Lesions", "setting": "[14]; [19]", "result": "16/18"}, {"measurement": "Mortality", "setting": "[14]; [19]", "result": "0/18"}, {"measurement": "Avg. Wt.", "setting": "[14]; [20]", "result": 1353, "unit": "gm."}, {"measurement": "E. coli Lesions", "setting": "[14]; [20]", "result": "31/40"}, {"measurement": "Mortality", "setting": "[14]; [20]", "result": "2/40"}, {"measurement": "E. coli Lesions", "setting": "[14]; [21]", "result": "11/30"}, {"measurement": "Mortality", "setting": "[14]; [21]", "result": "0/30"}, {"measurement": "Wt.", "setting": "[14]; [21]", "result": 1103, "unit": "gm."}, {"measurement": "Avg. Wt.", "setting": "[14]; [22]", "result": 1302, "unit": "gm."}, {"measurement": "E. coli Lesions", "setting": "[14]; [22]", "result": "5/18"}, {"measurement": "Mortality", "setting": "[14]; [22]", "result": "0/18"}, {"measurement": "Mortality", "setting": "[14]; 300 gm./ton, approximately 7-week-old chickens", "result": "0/12"}, {"measurement": "E. coli Lesions", "setting": "[14]; 300 gm./ton, approximately 7-week-old chickens, birds which died not examined", "result": "4/12"}, {"measurement": "Mortality", "setting": "[14]; 600 gm./ton, approximately 7-week-old chickens", "result": "0/12"}, {"measurement": "E. coli Lesions", "setting": "[14]; 600 gm./ton, approximately 7-week-old chickens, birds which died not examined", "result": "2/12"}, {"measurement": "Mortality", "setting": "[14]; 1000 gm./ton, approximately 7-week-old chickens", "result": "0/12"}, {"measurement": "E. coli Lesions", "setting": "[14]; 1000 gm./ton, approximately 7-week-old chickens, birds which died not examined", "result": "0/12"}, {"measurement": "abscesses in cervical areas", "setting": "[15]", "result": "No abscesses were found in any of the treated swine"}]}
